Where “and” joins values, the source holds several entries; their conditions need not be identical. Identical values can stand only once. Entries after “also recorded” stand apart in the source; their conditions may differ.
Key:
[1] = tested on: Hela cells; test: Antiproliferative activity, MTS assay, HeLa cells; type: cell-based, Human; conditions: for IC50: 72 h incubation, MTS
Protocol: (§1) Cell culture Human cervix HeLa cell line was obtained from ATCC (Rockville, Md.) and cultured in minimum essential medium (MEM) with L-glutamine (2 mM), Earle's BSS and sodium bicarbonate (1.5 g/L), supplemented with 10% fetal bovine serum (FBS), non-essential amino acids (0.1 mM), sodium pyruvate (1 mM) and antibiotic/antimycotic solution in a humidified atmosphere with 5% CO2 at 37° C. […] Lung fibroblast MRC-5 cell line was obtained from ATCC (Rockville, Md.) and cultured in ATCC formulated EMEM, supplemented with 10% fetal bovine serum (FBS) in a humidified atmosphere with 5% CO2 at 37° C.
(§2) Antiproliferative Activity. Cells were seeded onto 96-well plate at density of 2,000 cells for Hela cells or 5,000 cells for HT29 cells or 5,000 cells for MRC-5 per well in 0.1 mL complete medium and allowed to attach for 24 h. Varying concentrations of the test compounds in the final volume of 0.1 mL complete medium were then added in at least five series dilutions and incubated for 72 h. To measure cell proliferation, the Cell Titer 96 aqueous nonreactive cell proliferation assay (Promega Life Sciences, Madison, Wis.) was used according to the manufacturer's instructions. Briefly, MTS (2 mg/mL) and PMS (0.92 mg/ml) were mixed in a ratio of 20:1. An aliquot (20 μL) of the MTS/PMS mixture was added into each well, and the plate was incubated for 3 h at 37° C. Optical absorbance at 490 nm was then recorded with an enzyme-linked immunosorbent assay (ELISA) microtiter plate reader (Biotek). Each experiment was done at least in triplicate. Antiproliferative activity of the test compounds was expressed as the fraction of optical densities of treated the cells relative to the untreated solvent controls.^31 The data were plotted in GraphPad Prizm 3.0. Nonlinear regression analysis was used to determine IC50 values.
(§3) Cell culture. Human cervix HeLa cell line was obtained from ATCC (Rockville, Md.) and cultured in minimum essential medium (MEM) with L-glutamine (2 mM), Earle's BSS and sodium bicarbonate (1.5 g/L), supplemented with 10% fetal bovine serum (FBS), non-essential amino acids (0.1 mM), sodium pyruvate (1 mM) and antibiotic/antimycotic solution in a humidified atmosphere with 5% CO2 at 37° C.
as §2, with “activity.” for “Activity.”, “cells” for “cells or 5,000 cells for MRC-5”, “controls.” for “controls.^31”

[2] = tested on: HT29 cells; test: Antiproliferative activity, MTS assay, HT29 cells; type: cell-based, Human
Protocol: as §1, §2, §3
as §2, with “activity.” for “Activity.”, “cells” for “cells or 5,000 cells for MRC-5”, “controls.” for “controls.^31”

[3] = In vitro serum stability of 177Lu-labeled complexes (radio-TLC, HPLC); type: in vitro ADME, mouse; design: Radiolabled Complex, in vitro serum stability (Table 1): unit not given here; conditions: for Radiolabled Complex, in vitro serum stability (Table 1): 37° C.
Protocol: The new ligand DEPA was radiolabeled with ^177Lu and ^205/6Bi (a surrogate of ^212Bi and ^213Bi) and the corresponding radiolabeled complexes were evaluated for in vitro serum stability as described previously. For comparison, DOTA was also radiolabeled with ^177Lu. DEPA and DOTA (0.25 M NH4OAc buffer, pH 4.0) was radiolabeled with ^177Lu at 45° C. for 0.5 h to afford ^177Lu-DEPA (Rf=0.6) and ^177Lu-DOTA (Rf=0.4) in the respective radiochemical yield of 90% and 95% as determined by radio-TLC. DEPA (0.25 M NH4OAc buffer, pH 5.0) was successfully radiolabeled with ^205/6Bi at room temperature for 1 h to afford ^205/6Bi-DEPA in 96% yield (radio-TLC). ^177Lu-DOTA, 177Lu-DEPA, and ^205/6Bi-DEPA formed were purified from unbound ^205/6Bi by ion-exchange chromatography using a Chelex-100 column (1 mL volume bed, 100-200 mesh, Na^+ form, Bio-Rad, Richmond, Calif.) eluted with PBS (pH 7.4). In vitro serum stability of the purified radiolabeled complexes was performed to determine if DEPA or DOTA radiolabeled with ^177Lu or ^205/6Bi remained stable without loss of the radionuclide in human serum. This was assessed by measuring the transfer of radionuclide from the complex to serum proteins. […] However, ˜10% of the radioactivity was released from ^177Lu-DOTA over 4 days.
In vitro serum stability of the radiolabeled metal complexes. An aliquot of 3.7 MBq of the purified ^177Lu-labeled ligands was added to 0.5 mL of mouse serum (Sigma, St. Louis, Mo.) and 0.1% NaN3. The resulting mixture was incubated at 37° C. for 96 h. Aliquots of 2 μL of the resulting mixture were analyzed by radio-TLC and HPLC at different time points, 0, 0.25, 0.5, 1, 2, 4, 6, 24, 48, and 96 h of incubation. The stability of purified ^205/6Bi-DEPA was evaluated in human serum (Gemini Bioproducts, Woodland, Calif.) for 14 days by measuring the transfer of the radionuclide from the complex to serum proteins as monitored by SE-HPLC. Radiolabeled complexes were diluted to an appropriate volume that allowed for preparation of multiple samples containing 5-10 μCi and filter-sterilized using a Millex-GV 0.22 μm filter. 140 μL of this stock solution was then mixed with 1400 μL of sterile normal human serum or saline. Aliquots (200 μL) were drawn and separated into individual tubes for subsequent analysis using aseptic technique. The samples were incubated at 37° C., and at designated intervals, subjected to analysis by SE-HPLC. Samples were loaded onto the HPLC and eluted with PBS, pH 7.4 isocratically at 1 mL/min. […] Radioactivity associated with a transfer to serum proteins generally appeared between ˜4.5-8 min.

[4] = In vitro serum stability of 64Cu-labeled ligands in rat serum (radio-TLC); type: in vitro ADME; conditions: for Purity (serum stability, radio-TLC): 37° C., n=3; for 64Cu dissociated from the complex: in 24 hours; for stability in rat serum (in words): 48 hours
Protocol: The radiolabeling reactions of the ligands with ^64Cu were performed at elevated temperatures to ensure complete complex formation. At the no-carrier-added (NCA) level, all ligands were successfully labeled with ^64Cu in quantitative radiochemical yields (100%) as determined by radio-TLC. […] The ^64Cu-labeled complexes were freshly prepared for their serum stability evaluation, which was assessed by measuring the transfer of radionuclide from the complex to serum proteins over 24 hours or 48 hours.
In vitro serum stability: To 100 μL of rat serum, 10 μL of each ^64Cu-labeled complex was added (n=3 per complex). DOTA labeled with ^64Cu was used as a positive control. The resulting solutions were incubated at 37° C. in a water-bath. At 1 h, 4 h, 24 h and 48 h after the complex addition to rat serum, the solutions were sampled and analyzed by radio-TLC.

[5] = Homo sapiens, HT-29, 72 h incubation

O=C(O)CNCCN1CCN(CC(=O)O)CCN(CC(=O)O)CC1 [NE3TA, (4-Carboxymethyl-7-[2-(carboxymethyl-amino)-ethyl]-[1,4,7]trizonan-1-yl)-acetic acid]
IC50 ([1]; Homo sapiens): 5.7 ± 0.3 µM
IC50 [2, 5]: 4.7 ± 0.3 µM

O=C(O)CN1CCN(CC(=O)O)CCN(CC(Cc2ccc([N+](=O)[O-])cc2)N(CC(=O)O)CC(=O)O)CC1 (stereo not drawn) [C-NETA]
IC50 [1]: > 100 µM
cytotoxicity in HeLa cells over a series of concentrations (in words) ([1]; FIG. 18): virtually no inhibitory activity
IC50 ([2]; 72 h incubation): 45.7 ± 4 µM

Holo-C-NE3TA: ligand-transferin conjugate (holo) of C-NE3TA-NCS
IC50 [1]: 7.03 ± 0.09 µM

Apo-N-NE3TA: ligand-transferin conjugate (apo) of N-NE3TA-NCS
IC50 [1]: 8.85 ± 1.43 µM

O=C([O-])CN1CCN(CC(=O)[O-])CCN(CC(=O)[O-])CCN(CC(=O)[O-])CC1.[177Lu+3].[H+] [^177Lu-DOTA, reference compound]
radioactivity released from the complex in serum ([3]; over 4 days): ~10% and 11%
Radiolabled Complex, in vitro serum stability (Table 1) ([3]; serum, 0 h): 100
Radiolabled Complex, in vitro serum stability (Table 1) ([3]; serum, 0.5 h): 99.0
Radiolabled Complex, in vitro serum stability (Table 1) ([3]; serum, 1 h): 100.1
Radiolabled Complex, in vitro serum stability (Table 1) ([3]; serum, 2 h): 99.3
Radiolabled Complex, in vitro serum stability (Table 1) ([3]; serum, 4 h): 97.0
Radiolabled Complex, in vitro serum stability (Table 1) ([3]; serum, 6 h): 97.5
Radiolabled Complex, in vitro serum stability (Table 1) ([3]; serum, 24 h): 98.2
Radiolabled Complex, in vitro serum stability (Table 1) ([3]; serum, 48 h): 91.2
Radiolabled Complex, in vitro serum stability (Table 1) ([3]; serum, 96 h): 89.6

O=C(O)CN1CCN(CCN(CC(=O)O)Cc2ccc([N+](=O)[O-])cc2)CCN(CC(=O)O)CC1 [N-NE3TA]
IC50 ([1]; Homo sapiens): 8.4 ± 0.4 µM
IC50 [2, 5]: 6.8 ± 0.4 µM

CC(CCC(=O)Nc1ccc(CC(CN2CCN(CC(=O)O)CCN(CC(=O)O)CC2)NCC(=O)O)cc1)C1CCC2C3CCC4CC(O)CCC4(C)C3CC(O)C12C (stereo not drawn) [DCA-NE3TA, [4-Carboxymethyl-7-(2-(carboxymethyl-amino)-3-{4-[4-(3,12-dihydroxy-10,13-dimethylhexadecahydro-cyclopenta[a]phenanthren-17-yl)-pentanoylamino]-phenyl}-propyl)-[1,4,7]triazonan-1-yl]-acetic acid]
sensitivity of HeLa cells relative to DTPA [1]: approximately 40 fold
IC50 ([1]; Homo sapiens): 6.3 ± 0.1 µM
IC50 [2, 5]: 7.5 ± 0.3 µM

O=C(O)CN1CCN(CCCO)CCN(CC(=O)O)CC1.[64Cu] [^64Cu-NBPA]
Purity (serum stability, radio-TLC) ([4]; incubation time 1 h): 99.6 ± 0.7
Purity (serum stability, radio-TLC) ([4]; incubation time 4 h): 97.5 ± 4.4
Purity (serum stability, radio-TLC) ([4]; incubation time 24 h): 70.5 ± 6.5
64Cu dissociated from the complex [4]: 29%

Holo-N-NE3TA: ligand-transferin conjugate (holo) of N-NE3TA-NCS
IC50 [1]: 11.5 ± 0.21 µM

O=C(O)CN1CCN(CCN(CC(=O)O)CC(=O)O)CCN(CC(=O)O)CCN(CC(=O)O)CC1.[177Lu] [^177Lu-DEPA]
Radiolabled Complex, in vitro serum stability (Table 1) ([3]; serum, 0 h): 100
Radiolabled Complex, in vitro serum stability (Table 1) ([3]; serum, 0.5 h): 100
Radiolabled Complex, in vitro serum stability (Table 1) ([3]; serum, 1 h): 100
Radiolabled Complex, in vitro serum stability (Table 1) ([3]; serum, 2 h): 100
Radiolabled Complex, in vitro serum stability (Table 1) ([3]; serum, 4 h): 100
Radiolabled Complex, in vitro serum stability (Table 1) ([3]; serum, 6 h): 100
Radiolabled Complex, in vitro serum stability (Table 1) ([3]; serum, 24 h): 100
Radiolabled Complex, in vitro serum stability (Table 1) ([3]; serum, 48 h): 100
Radiolabled Complex, in vitro serum stability (Table 1) ([3]; serum, 96 h): 100
serum stability of 177Lu complex (in words) ([3]; serum, up to 96 h): remained intact without being dissociated in serum; also recorded: stable in serum

O=C(O)CNCCN1CCN(CC(=O)O)CCN(CC(=O)O)CC1.[64Cu] [^64Cu-NE3TA]
Purity (serum stability, radio-TLC) ([4]; incubation time 1 h): 100 ± 0.0
Purity (serum stability, radio-TLC) ([4]; incubation time 4 h): 100 ± 0.0
Purity (serum stability, radio-TLC) ([4]; incubation time 24 h): 100 ± 0.0
Purity (serum stability, radio-TLC) ([4]; incubation time 48 h): 100 ± 0.0
stability in rat serum (in words) [4]: no measurable loss of radioactivity

O=C(O)CN1CCN(CCO)CCN(CC(=O)O)CC1.[64Cu] [^64Cu-NBEA]
Purity (serum stability, radio-TLC) ([4]; incubation time 1 h): 100 ± 0.0
Purity (serum stability, radio-TLC) ([4]; incubation time 4 h): 100 ± 0.0
Purity (serum stability, radio-TLC) ([4]; incubation time 24 h): 45.3 ± 9.8
64Cu dissociated from the complex [4]: 54%

O=C(O)CN1CCN(CCN(CC(=O)O)Cc2ccccc2)CCN(CC(=O)O)CC1.[64Cu] [^64Cu-NE3TA-Bn]
Purity (serum stability, radio-TLC) ([4]; incubation time 1 h): 100 ± 0.0
Purity (serum stability, radio-TLC) ([4]; incubation time 4 h): 100 ± 0.0
Purity (serum stability, radio-TLC) ([4]; incubation time 24 h): 100 ± 0.0
Purity (serum stability, radio-TLC) ([4]; incubation time 48 h): 100 ± 0.0
stability in rat serum (in words) [4]: no measurable loss of radioactivity
